“And” between values parts separate entries of the source, which are not always exact repeats. Equal entries are not always repeated. Where two headings read alike, the source gives them in different places.
Tested on: Aspergillus flavus
Experiment: Fungicidal bioassay on nongerminated and germinating conidia of A. flavus
Assay type: cell-based
Conditions: for activity at 2 µM / activity at 3 µM / activity at 4 µM / activity at 5 µM / activity at 7.5 µM / activity at 10 µM / activity at 1 µM / activity at 2.5 µM: read-out: Percent of Mean Control
Method: 1. Filamentous fungi. Filamentous fungi used in bioassays included Aspergillus flavus, A. fumigatus, A. niger, A. parasiticus and Fusarium oxysporum. The fungicidal properties of CAY-1 for the nongerminated and germinating conidia of these fungi were determined separately as described by De Lucca et al. [Med. Mycol., 36:291-298 (1998)] and De Lucca et al. [Antimicrob. Agents Chemother. 43:371-373 (1999)]. […] Two separate experiments were conducted in each medium (n=8 per medium).
A suspension of the aforementioned fungi were prepared separately in the appropriate medium. Conidia (10^4 conidia/ml) were used immediately for the nongerminated conidial assays while conidia (10^5 conidia/ml) were incubated for 7.5 hours at 30° C. to obtain germinating conidia. Serial dilutions of CAY-1 were prepared in the appropriate medium (totaling 225 μl) to which was added 25 μl of the conidial suspensions. The control consisted of 225 μl of medium and 25 μl of the conidial suspension. After mixing, the samples were incubated for 30 min (30° C.). Samples were then spread on potato dextrose agar plates which were incubated at 30° C. for 24 hours. Colonies were then enumerated.
Statistical analyses. ANOVA analyses on ranks for nonparametric data were performed for the bioassays described in this example.

## CC1CCC2(OC1)OC1CC3C4CCC5CC(OC6OC(CO)C(OC7OC(CO)C(O)C(OC8OC(CO)C(O)C(OC9OC(CO)C(O)C(O)C9O)C8O)C7OC7OC(CO)C(O)C(O)C7O)C(O)C6O)C(O)CC5(C)C4CCC3(C)C1C2C (stereo not drawn) [CAY-1]
Aspergillus flavus, 0.5 h, germinating, 1% PDB, 2.0 μM
  activity at 2 µM: 90.1%
Aspergillus flavus, 0.5 h, germinating, 1% PDB, 3.0 μM
  activity at 3 µM: 74.4%
Aspergillus flavus, 0.5 h, germinating, 1% PDB, 4.0 μM
  activity at 4 µM: 54.2%
Aspergillus flavus, 0.5 h, germinating, 1% PDB, 5.0 μM
  activity at 5 µM: 34.9%
Aspergillus flavus, 0.5 h, germinating, 1% PDB, 7.5 μM
  activity at 7.5 µM: 11%
Aspergillus flavus, 0.5 h, germinating, 1% PDB, 10.0 μM
  activity at 10 µM: 8.4%
Aspergillus flavus, 0.5 h, germinating, RPMI-1640, 1.0 μM
  activity at 1 µM: 132%
Aspergillus flavus, 0.5 h, germinating, RPMI-1640, 2.5 μM
  activity at 2.5 µM: 145%
Aspergillus flavus, 0.5 h, germinating, RPMI-1640, 5.0 μM
  activity at 5 µM: 62.9%
Aspergillus flavus, 0.5 h, germinating, RPMI-1640, 7.5 μM
  activity at 7.5 µM: 14%
Aspergillus flavus, 0.5 h, germinating, RPMI-1640, 10.0 μM
  activity at 10 µM: 9%
Aspergillus flavus, 0.5 h, nongerminated, 1% PDB, 2.0 μM
  activity at 2 µM: 102%
Aspergillus flavus, 0.5 h, nongerminated, 1% PDB, 3.0 μM
  activity at 3 µM: 102%
Aspergillus flavus, 0.5 h, nongerminated, 1% PDB, 4.0 μM
  activity at 4 µM: 103%
Aspergillus flavus, 0.5 h, nongerminated, 1% PDB, 5.0 μM
  activity at 5 µM: 104%
Aspergillus flavus, 0.5 h, nongerminated, 1% PDB, 7.5 μM
  activity at 7.5 µM: 106%
Aspergillus flavus, 0.5 h, nongerminated, 1% PDB, 10.0 μM
  activity at 10 µM: 108%
Aspergillus flavus, 0.5 h, nongerminated, RPMI-1640, 1.0 μM
  activity at 1 µM: 88.6%
Aspergillus flavus, 0.5 h, nongerminated, RPMI-1640, 2.5 μM
  activity at 2.5 µM: 92.2%
Aspergillus flavus, 0.5 h, nongerminated, RPMI-1640, 5.0 μM
  activity at 5 µM: 91.7%
Aspergillus flavus, 0.5 h, nongerminated, RPMI-1640, 7.5 μM
  activity at 7.5 µM: 90.7%
Aspergillus flavus, 0.5 h, nongerminated, RPMI-1640, 10.0 μM
  activity at 10 µM: 99.2%
Aspergillus flavus, 0.5 h, read-out: LD95
  LD95 (concentration lethal to 95% of conidia): 12.5 µM and 15.5 µg/mL
Aspergillus flavus, 0.5 h, read-out: concentration lethal to germinating conidia
  minimal effective concentration: 7.5 µM and 9.3 µg/mL
Germinating conidia, RPMI-1640, p=0.0187
  concentration lethal to germinating conidia: 7.5 μM and 9.3 μg/ml
germinating, 1% PDB, 2.0 μM
  Mean No. of Colonies: 139.8
germinating, 1% PDB, 3.0 μM
  Mean No. of Colonies: 115.4
germinating, 1% PDB, 4.0 μM
  Mean No. of Colonies: 84.1
germinating, 1% PDB, 5.0 μM
  Mean No. of Colonies: 54.2
germinating, 1% PDB, 7.5 μM
  Mean No. of Colonies: 17.1
germinating, 1% PDB, 10.0 μM
  Mean No. of Colonies: 13.1
germinating, RPMI-1640, 1.0 μM
  Mean No. of Colonies: 52.6
germinating, RPMI-1640, 2.5 μM
  Mean No. of Colonies: 57.8
germinating, RPMI-1640, 5.0 μM
  Mean No. of Colonies: 25.1
germinating, RPMI-1640, 7.5 μM
  Mean No. of Colonies: 5.6
germinating, RPMI-1640, 10.0 μM
  Mean No. of Colonies: 3.6
Nongerminated conidia, either test medium
  viability of nongerminated conidia: not affected
nongerminated, 1% PDB, 2.0 μM
  Mean No. of Colonies: 54.4
nongerminated, 1% PDB, 3.0 μM
  Mean No. of Colonies: 54.8
nongerminated, 1% PDB, 4.0 μM
  Mean No. of Colonies: 55.2
nongerminated, 1% PDB, 5.0 μM
  Mean No. of Colonies: 55.7
nongerminated, 1% PDB, 7.5 μM
  Mean No. of Colonies: 56.9
nongerminated, 1% PDB, 10.0 μM
  Mean No. of Colonies: 58.0
nongerminated, RPMI-1640, 1.0 μM
  Mean No. of Colonies: 53.6
nongerminated, RPMI-1640, 2.5 μM
  Mean No. of Colonies: 55.8
nongerminated, RPMI-1640, 5.0 μM
  Mean No. of Colonies: 55.5
nongerminated, RPMI-1640, 7.5 μM
  Mean No. of Colonies: 54.9
nongerminated, RPMI-1640, 10.0 μM
  Mean No. of Colonies: 60.0
